Here are results for two compounds from ChEMBL document CHEMBL1142178, “Lysostaphin-resistant variants of Staphylococcus aureus demonstrate reduced fitness in vitro and in vivo” (2007).

What all share (assay type): functional
In test [1] the test system is Staphylococcus aureus. In words: Antibacterial activity against methicillin-resistant Staphylococcus aureus MBT 5040-LysoR.
In test [2] the test system is Staphylococcus aureus. In words: Antibacterial activity against methicillin-resistant Staphylococcus aureus Col-LysoR.
For test [3], the system named is Staphylococcus aureus. Briefly: Antibacterial activity against methicillin-resistant Staphylococcus aureus Col.
Test [4] has as its system Staphylococcus aureus. Briefly: Antibacterial activity against methicillin-resistant Staphylococcus aureus MBT 5040.
The subject of test [5] is Staphylococcus aureus. In words: Antibacterial activity against methicillin-resistant Staphylococcus aureus MBT 5040 in CF1 mouse assessed as kidney infection after 7 days.
Test [6] deals with Staphylococcus aureus. In words: Antibacterial activity against methicillin-resistant Staphylococcus aureus Col and Staphylococcus aureus Col-LysoR co-infected in CF1 mouse assessed as kidney infection after 7 days.
Test [7] relates to Staphylococcus aureus. In words: Antibacterial activity against methicillin-resistant Staphylococcus aureus Col in CF1 mouse assessed as kidney infection after 7 days.
Test [8] relates to Staphylococcus aureus. In words: Antibacterial activity against methicillin-resistant Staphylococcus aureus MBT 5040 and Staphylococcus aureus MBT 5040-LysoR co-infected in CF1 mouse assessed as kidney infection after 7 days.

SMILES strings stand for the structures.

With `Cc1onc(-c2ccccc2)c1C(=O)N[C@@H]1C(=O)N2[C@@H]1SC(C)(C)[C@@H]2C(=O)[O-].[Na+]`, the MIC against Staphylococcus aureus [1] is 0.25 µg/mL; against Staphylococcus aureus [2], 0.25 µg/mL; with Staphylococcus aureus [3], > 32 µg/mL; against Staphylococcus aureus [4] it was > 32 µg/mL.
Turning to `CCOc1ccc2ccccc2c1C(=O)N[C@@H]1C(=O)N2[C@@H]1SC(C)(C)[C@@H]2C(=O)O` [NAFCILLIN], the CFU in the test on Staphylococcus aureus [5] is recorded as 5630; in the test on Staphylococcus aureus [6], 10780; with Staphylococcus aureus [7], 9960; with Staphylococcus aureus [8] it was 9520.
